Measured values as given in ChEMBL document CHEMBL3430912, “GSK Tres Cantos Anti-Kinetoplastid Screening (TCAKS) Data”.

Assays:
[1] = target: Sterol 14-alpha demethylase (Trypanosoma cruzi (strain CL Brener), UniProt Q7Z1V1); assay: GSK_TCAKS: pIC50 CYP51 from Trypanosoma cruzi.; format: functional
[2] = system: Trypanosoma brucei brucei; assay: GSK_TCAKS: pIC50 Trypanosoma brucei viability assay using fluorescence intensity. Assay plates (1536-well) were prepared by dispensing 25nL of compound solution per well using an Echo acoustic dispenser (Labcyte).; format: functional, organism-based; conditions: Lister 427, 2 h
Leishmania donovani [3] = assay: GSK_TCAKS: pIC50 Leishmania donovani Imaging: Amastigotes/Macrophages. Assay plates (384-well) were prepared by adding 250nL of compound to each well. For single shot assay, the final compound concentration was 5 uM. […] Automated image analysis was performed with a script developed on Acapella High Content Imaging and Analysis Software (PerkinElmer). Output: Average number of amastigotes per macrophage cell were reported for each well.; format: functional, organism-based, Homo sapiens; conditions: THP-1
Leishmania donovani [4] = assay: GSK_TCAKS: pIC50 Leishmania donovani Imaging: THP-1 Host Macrophages. Assay plates (384-well) were prepared by adding 250nL of compound to each well. For single shot assay, the final compound concentration was 5 uM. […] Automated image analysis was performed with a script developed on Acapella High Content Imaging and Analysis Software (PerkinElmer). Output: THP-1 cell count were reported for each well.; format: functional, organism-based, Homo sapiens
Leishmania donovani [5] = assay: GSK_TCAKS: pIC50 Leishmania donovani viability assay using fluorescence intensity. Assay plates (1536-well) were prepared by adding 30nL per well of compound. For single shot assay, the final compound concentration was 5uM. […] Briefly, eGFP LdBOB axenic amastigotes were harvested, fixed and counted in a CASY cell counter (Roche-Applied Science). A final concentration of 1.5 * 10^5 cells per well were prepared in amastigote media containing 500 U/mL penicillin/streptomycin (Invitrogen) and 6uL was dispensed to each experimental well using a Multidrop Combi dispenser (Thermo Scientific). 6uL of assay media was dispensed to control columns used as reference for 100% compound response. Following incubation for 72 h at 37C, 5% CO2, 2 uL of resazurin was added to each well at a final concentration of 0.5 mM in phosphate buffered saline (PBS) with IGEPAL (Sigma-Aldrich), 0.05% (v/v).; format: functional, organism-based
[6] = GSK_TCAKS: pIC50 HepG2 human cell line viability assay using luminiscence. […] Seeding density was checked to ensure that new mono-layers were not more than 50% confluent at the time of harvesting. Cell suspension was added to 500 mL of the same medium at a final density of 1.2 * 10^5 cells/mL. This cell suspension was dispensed (25 uL, 3000 cells per well) into 384-well clear-bottom plates using a Multidrop Combi dispenser. Prior to addition of the cell suspension, the screening compounds (250 nL) were pre-dispensed into the plates with an Echo liquid handler. Plates were incubated for 48 h at 37C, 5% CO2. After incubation, plates equilibrated at room temperature for 30 min before proceeding to develop the luminescent signal. The signal developer, CellTiter-Glo Reagent, was allowed to equilibrate at room temperature for 30 min and added to the plates (25uL per well) using a Multidrop Combi dispenser. Plates were left for 10 min at room temperature for stabilization and then read using a ViewLux.; format: toxicity, cell-based
Trypanosoma cruzi [7] = assay: GSK_TCAKS: pIC50 Trypanosoma cruzi viability assay using beta-GAL activity. This assay was run at single shot at 5uM compound concentration per well. The biological reagents consisted of NIH-3T3 host cells and trypomastigotes parasitic cells; both cell types were set to a 3.3 * 10^5 cells/mL dilution in assay DMEM by means of a CASY cell counter device using a 60um capillary. 6 uL of the mixture were dispensed per well (about 1 * 10^3 host-cells and 1 * 10^3 parasites) with a Multidrop Combi dispenser. […] In all wells, the percentage of DMSO never exceeded 0.5%. Plates incubated for four days at 37C, 5% CO2. The substrate used for the assay fluorescence intensity (FLINT) readout was resorufin-beta-D-galactopiranoside (Sigma-Aldrich) at 5uM per well. It was diluted in PBS supplemented with the soft detergent Igepal (Fluka).; format: functional, organism-based, Mus musculus; conditions: Tulahuen, NIH3T3
Leishmania donovani [8] = assay: GSK_TCAKS: pIC50 Leishmania donovani Imaging: Infected Macrophages. Assay plates (384-well) were prepared by adding 250nL of compound to each well. For single shot assay, the final compound concentration was 5 uM. […] Automated image analysis was performed with a script developed on Acapella High Content Imaging and Analysis Software (PerkinElmer). Output: Percent of infected macrophage cells were reported for each well.; format: functional, organism-based, Homo sapiens; conditions: THP-1
Trypanosoma cruzi [9] = assay: (§1) GSK_TCAKS: pIC50 Trypanosoma cruzi Imaging: Infected Cells. […] Cells were then washed once with PBS before infection. T. cruzi trypomastigotes, collected at days 5 to 8 after infection from LLC-MK2 parasite infected cultures, were allowed to swim out for 4h at 37C from a centrifuged pellet (2,500 rpm/10 min/room temperature). Trypomastigotes were then collected and counted in a CASY Cell Counter. Trypomastigotes, in supplemented DMEM, were added to H9c2 cultures in a multiplicity of infection of 1 and incubated for 18 h. Cells were washed once with PBS before incubation of the infected H9c2 monolayer with trypsin (Life-Technologies) to detach cells from the flask. Cells were counted in a CASY Cell Counter using a 150 um capillary and their density set at 5 * 10^4 cells per mL in supplemented assay DMEM. Infected H9c2 were dispensed into 384-well poly-lysine coated assay plates at 50uL per well using a Multidrop Combi dispenser. After seeding them, the plates were incubated at 37C, 5% CO2 for 72h. Cultures were then fixed and stained by addition of 50 uL of a solution containing 8% formaldehyde and 4 uM DRAQ5 DNA dye (BioStatus, UK) per well. […] Five images were collected per well for reliable statistical analysis. Automated image analysis was performed with a script developed on Acapella High Content Imaging and Analysis Software (PerkinElmer). Output: percentage of infected cells per well as a second infection marker.; format: functional, organism-based, Rattus norvegicus; conditions: H9c2, 4 h
Trypanosoma cruzi [10] = assay: GSK_TCAKS: pIC50 Trypanosoma cruzi Imaging: Amastigotes/Cell. […] Cells were then washed once with PBS before infection. T. cruzi trypomastigotes, collected at days 5 to 8 after infection from LLC-MK2 parasite infected cultures, were allowed to swim out for 4h at 37C from a centrifuged pellet (2,500 rpm/10 min/room temperature). Trypomastigotes were then collected and counted in a CASY Cell Counter. Trypomastigotes, in supplemented DMEM, were added to H9c2 cultures in a multiplicity of infection of 1 and incubated for 18 h. Cells were washed once with PBS before incubation of the infected H9c2 monolayer with trypsin (Life-Technologies) to detach cells from the flask. Cells were counted in a CASY Cell Counter using a 150 um capillary and their density set at 5 * 10^4 cells per mL in supplemented assay DMEM. Infected H9c2 were dispensed into 384-well poly-lysine coated assay plates at 50uL per well using a Multidrop Combi dispenser. After seeding them, the plates were incubated at 37C, 5% CO2 for 72h. Cultures were then fixed and stained by addition of 50 uL of a solution containing 8% formaldehyde and 4 uM DRAQ5 DNA dye (BioStatus, UK) per well. […] Five images were collected per well for reliable statistical analysis. Automated image analysis was performed with a script developed on Acapella High Content Imaging and Analysis Software (PerkinElmer). Output: number of amastigotes per cell as infection level measurement.; format: functional, organism-based, Rattus norvegicus; conditions: H9c2, 4 h
Trypanosoma cruzi [11] = assay: as §1, with “H2C9” for “Trypanosoma cruzi”, “H9c2 Host Cardiomyocytes.” for “Infected Cells.”, “Number” for “percentage”, “H9c2 Host Cardiomyocytes nuclei to determine drug-related cytotoxicity.” for “infected cells per well as a second infection marker.”; format: functional, organism-based, Rattus norvegicus; conditions: H9c2, 4 h
[12] = system: Trypanosoma brucei brucei; assay: GSK_TCAKS: pIC50 Trypanosoma brucei viability assay using luminiscence. Assay plates (1536-well) were prepared. T. brucei cultures were harvested and counted in a CASY cell counter. A parasite suspension was prepared at a final concentration of 5 * 10^4 cells/mL in complete HMI9 medium and 6uL was dispensed to all wells containing compounds using a Multidrop Combi dispenser. 6uL of HMI9 media with 0.4% DMSO were dispensed to control columns. Plates were incubated for 24 h at 37C, 5% CO2 then tempered for 10 min at room temperature. ATP content was quantified by adding 4 uL of CellTiter-Glo Reagent (Promega) according to the manufacturer's instructions. Luminescence was measured using a ViewLux.; format: functional, organism-based; conditions: Lister 427, CASY

Chain of Sterol 14-alpha demethylase (Q7Z1V1 whole entry): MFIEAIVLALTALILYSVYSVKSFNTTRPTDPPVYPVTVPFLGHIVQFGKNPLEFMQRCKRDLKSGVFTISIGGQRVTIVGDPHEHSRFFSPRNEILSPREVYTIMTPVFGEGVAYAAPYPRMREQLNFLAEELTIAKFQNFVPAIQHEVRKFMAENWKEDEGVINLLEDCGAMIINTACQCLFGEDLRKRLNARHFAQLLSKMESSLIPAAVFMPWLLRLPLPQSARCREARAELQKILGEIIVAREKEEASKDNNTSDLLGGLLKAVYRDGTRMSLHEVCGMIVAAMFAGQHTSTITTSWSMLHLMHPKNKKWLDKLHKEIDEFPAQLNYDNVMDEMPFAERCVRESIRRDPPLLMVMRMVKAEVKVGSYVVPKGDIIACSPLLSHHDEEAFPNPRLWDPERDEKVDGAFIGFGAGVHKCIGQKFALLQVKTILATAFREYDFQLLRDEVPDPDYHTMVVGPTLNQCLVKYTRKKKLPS

SMILES | IC50 [1] | IC50 [2] | IC50 (Leishmania donovani [3]) | IC50 (Leishmania donovani [4]) | IC50 (Leishmania donovani [5]) | IC50 at 48 h [6] | IC50 (Trypanosoma cruzi [7]) | IC50 (Leishmania donovani [8]) | IC50 (Trypanosoma cruzi [9]) | IC50 (Trypanosoma cruzi [10]) | IC50 (Trypanosoma cruzi [11]) | IC50 [12]
COc1ccc(CN2C(=O)C(O)(CC(=O)c3ccncc3)c3cc(Br)ccc32)cc1OC (configuration not stated) | 0.501 µM | 0.631 µM | 20 µM | 39.8 µM | 39.8 µM | 39.8 µM | 2.51 µM | 25.1 µM | 25.1 µM | 12.6 µM | 2 µM | 0.631 µM
Cc1ccccc1CNC(=O)CN(Cc1ccccn1)Cc1ccccn1 | 100 µM | 6.31 µM | 3.98 µM | > 79.4 µM | 10 µM | > 158 µM | 5.01 µM | 6.31 µM | 15.8 µM | 6.31 µM | > 79.4 µM | 20 µM
O=C(CN(Cc1ccccn1)Cc1ccccn1)NC1Cc2ccccc2C1 | 79.4 µM | 20 µM | 5.01 µM | > 79.4 µM | 12.6 µM | > 158 µM | 5.01 µM | 5.01 µM | 12.6 µM | 6.31 µM | > 79.4 µM | 12.6 µM
CC(CCc1ccccc1)NC(=O)CN(Cc1ccccn1)Cc1ccccn1 (configuration not stated) | 63.1 µM | 10 µM | 3.16 µM | 20 µM | 7.94 µM | > 158 µM | 2.51 µM | 3.16 µM | 10 µM | 3.16 µM | > 79.4 µM | 5.01 µM
O=C(CN(Cc1ccccn1)Cc1ccccn1)NCc1ccc2c(c1)OCO2 | 100 µM | 6.31 µM | 6.31 µM | > 79.4 µM | 12.6 µM | > 158 µM | 7.94 µM | 7.94 µM | 12.6 µM | 6.31 µM | > 79.4 µM | 20 µM
O=C(CN(Cc1ccccn1)Cc1ccccn1)NCc1csc(-c2cccs2)n1 | 39.8 µM | 20 µM | 3.16 µM | > 50.1 µM | 12.6 µM | > 100 µM | 3.98 µM | 6.31 µM | 6.31 µM | 2.51 µM | > 50.1 µM | 15.8 µM
Cc1nn(-c2ccccc2)nc1CNC(=O)CN(Cc1ccccn1)Cc1ccccn1 | 25.1 µM | 31.6 µM | 5.01 µM | > 63.1 µM | 7.94 µM | > 126 µM | 3.98 µM | 5.01 µM | 10 µM | 3.16 µM | > 63.1 µM | 10 µM
O=C(CN(Cc1ccccn1)Cc1ccccn1)NCc1ccc(-c2csnn2)cc1 | 39.8 µM | 12.6 µM | 5.01 µM | > 79.4 µM | 7.94 µM | 25.1 µM | 3.98 µM | 5.01 µM | 63.1 µM | 7.94 µM | > 79.4 µM | 7.94 µM
O=C(CSc1nnc(-c2ccc3c(c2)OCO3)o1)N(Cc1ccco1)CC(F)(F)F | 25.1 µM | > 39.8 µM | 3.16 µM | > 50.1 µM | 15.8 µM | > 100 µM | 10 µM | 7.94 µM | 3.16 µM | 2.51 µM | > 50.1 µM | > 39.8 µM
N#Cc1ccccc1S(=O)(=O)N1CCN(C(=O)CNC(=O)c2ccc3c(c2)OCO3)CC1 | 79.4 µM | > 39.8 µM | 1.58 µM | > 50.1 µM | 0.631 µM | > 100 µM | 15.8 µM | 5.01 µM | 1 µM | 0.631 µM | > 50.1 µM | > 39.8 µM
COc1ccc(NC(=O)c2ccc(NC(=O)CN(c3ccccc3C)S(C)(=O)=O)cc2)cc1 | 6.31 µM | 0.2 µM | 7.94 µM | > 50.1 µM | > 50.1 µM | 39.8 µM | 31.6 µM | > 50.1 µM | 25.1 µM | 20 µM | 25.1 µM | 0.794 µM
